Data on 85 compounds can be found in ChEMBL document CHEMBL1157012, “Neural computational prediction of oral drug absorption based on CODES 2D descriptors” (Eur J Med Chem, 2010).

The nature of the data set: Human intestinal absorption in po dosed human. As to conditions: in vivo.
For the compound `CCCc1nc2c(C)cc(-c3nc4ccccc4n3C)cc2n1Cc1ccc(-c2ccccc2C(=O)O)cc1`, the Fa is 90%. In turn, `N[C@H](Cc1ccccc1)C(=O)N1CCC[C@H]1C(=O)O` had a Fa of 100%. To `CNS(=O)(=O)Cc1ccc2[nH]cc(CCN(C)C)c2c1` belongs 57%. The compound `CC1=C(CC(=O)O)c2cc(F)ccc2/C1=C\c1ccc([S+](C)[O-])cc1` (stereo not given) showed a Fa of 90%. Turning to `COc1ccccc1N1CCN(CCCNc2cc(=O)n(C)c(=O)n2C)CC1`, the Fa was found to be 78%. Turning to `Cc1cccc(C)c1NC(=O)NCCCNC(C)C`, the Fa was determined as 71%. `CCOC(=O)[C@H](CCc1ccccc1)N[C@@H](C)C(=O)N1CCC[C@H]1C(=O)O` gave a Fa of 66%. As for `COc1ccc(CCN(C)CCCC(C#N)(c2ccc(OC)c(OC)c2)C(C)C)cc1OC` (stereo not given), the Fa came to 97%. Turning to `CCCC(=O)Nc1ccc(OCC(O)CNC(C)C)c(C(C)=O)c1` (stereo not given) [ACEBUTOLOL], the Fa turned out to be 80%. As to `CC(=O)Nc1ccc(O)cc1` [ACETAMINOPHEN], the Fa came to 80%.

`Cc1ccc(/C(=C\CN2CCCC2)c2cccc(/C=C/C(=O)O)n2)cc1` [ACRIVASTINE]: the Fa turned out to be 88%. To `Nc1nc2c(ncn2COCCO)c(=O)[nH]1` [ACYCLOVIR] belongs 23%; to `Nc1ncnc2c1ncn2CCOCP(=O)(O)O` [ADEFOVIR], 16%. In turn, `Cc1nnc2n1-c1ccc(Cl)cc1C(c1ccccc1)=NC2` [ALPRAZOLAM] displayed a Fa of 90%.

`N=C(N)NC(=O)c1nc(Cl)c(N)nc1N` [AMILORIDE] displayed a Fa of 50%. Compound `O=C1O[C@H]([C@@H](O)CO)C(O)=C1O` [ASCORBIC ACID] came in with a Fa of 35%. Compound `CC(=O)Oc1ccccc1C(=O)O` [ASPIRIN] yielded a Fa of 82%.

`NS(=O)(=O)c1cc(-c2nnn[nH]2)c(NCc2cccs2)cc1Cl` [AZOSEMIDE]: the Fa was found to be 10%.

`C[C@H]1[C@H](NC(=O)/C(=N\OC(C)(C)C(=O)O)c2csc(N)n2)C(=O)N1S(=O)(=O)O` [AZTREONAM] registered a Fa of 1%. `CC(C)NCC(O)COc1ccc(CCOCC2CC2)cc1` (stereo not given) [BETAXOLOL] showed a Fa of 90%.

Compound `O=C1CN=C(c2ccccn2)c2cc(Br)ccc2N1` [BROMAZEPAM] displayed a Fa of 84%. Turning to `Cn1c(=O)c2c(ncn2C)n(C)c1=O` [CAFFEINE], the Fa worked out at 100%. The figure for `CN(C)C(=O)OC1N=C(c2ccccc2)c2cc(Cl)ccc2N(C)C1=O` (stereo not given) [CAMAZEPAM] is 100%.

`C[C@H](CS)C(=O)N1CCC[C@H]1C(=O)O` [CAPTOPRIL]: the Fa stood at 84%. The compound `CC1(C)S[C@@H]2[C@H](NC(=O)C(C(=O)Oc3ccccc3)c3ccccc3)C(=O)N2[C@H]1C(=O)O` (stereo not given in full) [CARBENICILLIN PHENYL] yielded a Fa of 99%. As for `CC1=C(C(=O)O)N2C(=O)[C@@H](NC(=O)[C@H](N)c3ccc(O)cc3)[C@H]2SC1` [CEFADROXIL], the Fa turned out to be 100%.

The compound `N[C@@H](C(=O)N[C@@H]1C(=O)N2C(C(=O)O)=C(CSc3c[nH]nn3)CS[C@H]12)c1ccc(O)cc1` [CEFATRIZINE] returned a Fa of 75%.

In the case of `CO/N=C(\C(=O)N[C@@H]1C(=O)N2C(C(=O)O)=CCS[C@H]12)c1csc(N)n1` [CEFTIZOXIME], the Fa was found to be 72%.

With `CO/N=C(\C(=O)N[C@@H]1C(=O)N2C(C(=O)OC(C)OC(C)=O)=C(COC(N)=O)CS[C@H]12)c1ccco1` (stereo not given in full) [CEFUROXIME AXETIL], the Fa came to 44%. `O=C(N[C@H](CO)[C@H](O)c1ccc([N+](=O)[O-])cc1)C(Cl)Cl` [CHLORAMPHENICOL]: the Fa is 90%. With `ClC(Cl)Cl` [CHLOROFORM], the Fa came out at 100%. The compound `CN/C(=N/CCSCc1nc[nH]c1C)NC#N` [CIMETIDINE] came in with a Fa of 64%. The figure for `COc1cc(N)c(Cl)cc1C(=O)NC1CCN(CCCOc2ccc(F)cc2)CC1OC` (stereo not given) [CISAPRIDE] is 100%; for `CCOC(=O)C(C)(C)Oc1ccc(Cl)cc1` [CLOFIBRATE] it is 97%. `Clc1cccc(Cl)c1N=C1NCCN1` [CLONIDINE] yielded a Fa of 95%. To `O=C([O-])c1cc(=O)c2c(OCC(O)COc3cccc4oc(C(=O)[O-])cc(=O)c34)cccc2o1.[Na+].[Na+]` [CROMOLYN SODIUM] belongs 4%; to `N[C@@H]1CON=C1O` [CYCLOSERINE], 73%. Compound `CO[C@H]1C[C@H](O[C@H]2CC[C@]3(C=O)[C@H]4CC[C@]5(C)[C@@H](C6=CC(=O)OC6)CC[C@]5(O)[C@@H]4CC[C@]3(O)C2)O[C@H](C)[C@H]1O` [CYMARIN] displayed a Fa of 47%. `CNCCCN1c2ccccc2CCc2ccccc21` [DESIPRAMINE] displayed a Fa of 100%.

Compound `C[C@H](N)Cc1ccccc1` [DEXTROAMPHETAMINE] displayed a Fa of 90%. `COc1ccc2c3c1O[C@H]1[C@@H](O)CC[C@H]4[C@@H](C2)N(C)CC[C@@]341` [DIHYDROCODEINE] yielded a Fa of 88%.

The compound `CN(CCCCCCN(C)C(=O)Oc1ccc[n+](C)c1)C(=O)Oc1ccc[n+](C)c1.[Br-].[Br-]` [DISTIGMINE BROMIDE] showed a Fa of 8%. `COc1cccc2c1C(=O)c1c(O)c3c(c(O)c1C2=O)C[C@@](O)(C(=O)CO)C[C@@H]3O[C@H]1C[C@H](N)[C@H](O)[C@H](C)O1` [DOXORUBICIN] displayed a Fa of 12%. `NCCCC(N)(C(=O)O)C(F)F` (stereo not given) [EFLORNITHINE]: the Fa is 55%. The compound `C[C@H](N[C@@H](CCc1ccccc1)C(=O)O)C(=O)N1CCC[C@H]1C(=O)O` [ENALAPRILAT ANHYDROUS] gave a Fa of 25%. `C#C[C@]1(O)CC[C@H]2[C@@H]3CCc4cc(O)ccc4[C@H]3CC[C@@]21C` [ETHINYL ESTRADIOL]: the Fa stood at 100%. For the compound `COc1cc([C@@H]2c3cc4c(cc3[C@@H](O[C@@H]3O[C@@H]5CO[C@@H](C)O[C@H]5[C@H](O)[C@H]3O)[C@H]3COC(=O)[C@H]23)OCO4)cc(OC)c1O` [ETOPOSIDE], the Fa was found to be 50%. `CC(=O)OCC(CCn1cnc2cnc(N)nc21)COC(C)=O` [FAMCICLOVIR] gave a Fa of 77%. In turn, `NC(N)=Nc1nc(CSCCC(N)=NS(N)(=O)=O)cs1` [FAMOTIDINE] showed a Fa of 28%.

As for `NC(=O)OCC(COC(N)=O)c1ccccc1` [FELBAMATE], the Fa was 90%. The figure for `CCOC(=O)C1=C(C)NC(C)=C(C(=O)OC)C1c1cccc(Cl)c1Cl` (stereo not given) [FELODIPINE] is 88%; for `O=C(NCC1CCCCN1)c1cc(OCC(F)(F)F)ccc1OCC(F)(F)F` (stereo not given) [FLECAINIDE] it is 81%; for `C[C@@H]1O[C@@H]1P(=O)(O)O` [FOSFOMYCIN] it is 31%. As to `O=CN(O)CCCP(=O)(O)O` [FOSMIDOMYCIN], the Fa was 30%. The figure for `NCC1(CC(=O)O)CCCCC1` [GABAPENTIN] is 59%; for `COc1ccc(CCN(C)CCCC(C#N)(c2cc(OC)c(OC)c(OC)c2)C(C)C)cc1OC` (stereo not given) [GALLOPAMIL] it is 100%. In the case of `Cc1ccc(S(=O)(=O)NC(=O)NN2CC3CCCC3C2)cc1` (stereo not given) [GLICLAZIDE], the Fa is 65%.

With `COc1ccc(Cl)cc1C(=O)NCCc1ccc(S(=O)(=O)NC(=O)NC2CCCCC2)cc1` [GLYBURIDE], the Fa was found to be 100%.

Compound `NCC(=O)O` [GLYCINE] gave a Fa of 100%. With `CN1C2CCCC1CC(NC(=O)c1nn(C)c3ccccc13)C2` (stereo not given) [GRANISETRON], the Fa is 100%. `N=C(N)N/N=C/c1c(Cl)cccc1Cl` [GUANABENZ] had a Fa of 80%. On to `N=C(N)NCC1COc2ccccc2O1` (stereo not given) [GUANOXAN], for which the Fa is 50%. `NS(=O)(=O)c1cc2c(cc1Cl)NCNS2(=O)=O` [HYDROCHLOROTHIAZIDE] showed a Fa of 69%. To `CN(C)CCCN1c2ccccc2CCc2ccccc21` [IMIPRAMINE] belongs 100%.

With `Nc1cc(-c2ccncc2)c[nH]c1=O` [INAMRINONE], the Fa is 93%. `CNC(=O)c1c(I)c(NC(C)=O)c(I)c(C(=O)[O-])c1I.[Na+]` [IOTHALAMATE SODIUM] showed a Fa of 2%.

For `NNC(=O)c1ccncc1` [ISONIAZID], the Fa came out at 80%.

`Cc1cc(NC(=O)C2=C(O)c3ccccc3S(=O)(=O)N2C)no1` [ISOXICAM]: the Fa turned out to be 100%. As for `CC(C(=O)O)c1cccc(C(=O)c2ccccc2)c1` (stereo not given) [KETOPROFEN], the Fa was 92%. For the compound `O=C(c1ccccc1)c1ccc2n1CCC2C(=O)O` (stereo not given) [KETOROLAC], the Fa stood at 90%. Take `CC(CCc1ccccc1)NCC(O)c1ccc(O)c(C(N)=O)c1` (stereo not given) [LABETALOL]: the Fa was found to be 95%. Compound `OC[C@H]1O[C@@H](O[C@@H]2[C@@H](CO)O[C@](O)(CO)[C@H]2O)[C@H](O)[C@@H](O)[C@H]1O` [LACTULOSE] came in with a Fa of 1%. Turning to `Nc1ccn([C@@H]2CS[C@H](CO)O2)c(=O)n1` [LAMIVUDINE], the Fa is 85%. In turn, `Nc1nnc(-c2cccc(Cl)c2Cl)c(N)n1` [LAMOTRIGINE] registered a Fa of 98%. To `Cc1c(OCC(F)(F)F)ccnc1C[S+]([O-])c1nc2ccccc2[nH]1` (stereo not given) [LANSOPRAZOLE] belongs 85%.

`N[C@@H](Cc1ccc(O)c(O)c1)C(=O)O` [LEVODOPA] showed a Fa of 86%. Regarding `C#C[C@]1(O)CC[C@H]2[C@@H]3CCC4=CC(=O)CC[C@@H]4[C@H]3CC[C@@]21CC` [LEVONORGESTREL], the Fa was found to be 100%.

`CCC[C@@H]1C[C@@H](C(=O)N[C@@H]([C@H]2O[C@H](SC)[C@H](O)[C@@H](O)[C@H]2O)[C@@H](C)O)N(C)C1` [LINCOMYCIN] displayed a Fa of 28%. Consider `NCCCC[C@H](N[C@@H](CCc1ccccc1)C(=O)O)C(=O)N1CCC[C@H]1C(=O)O` [LISINOPRIL ANHYDROUS], for which the Fa is 28%. The compound `N[C@@H](C(=O)N[C@@H]1C(=O)N2C(C(=O)O)=C(Cl)CC[C@H]12)c1ccccc1` [LORACARBEF ANHYDROUS] displayed a Fa of 100%. Take `CN1C(=O)C(O)N=C(c2ccccc2Cl)c2cc(Cl)ccc21` (stereo not given) [LORMETAZEPAM]: the Fa is 100%. As for `CN1C(C(=O)Nc2ccccn2)=C(O)c2sc(Cl)cc2S1(=O)=O` [LORNOXICAM], the Fa was 100%.

Consider `OC[C@@H](O)[C@@H](O)[C@H](O)[C@H](O)CO` [MANNITOL], for which the Fa was found to be 16%.

The compound `Cc1cnc(NC(=O)C2=C(O)c3ccccc3S(=O)(=O)N2C)s1` [MELOXICAM] gave a Fa of 90%. As for `O=S(=O)([O-])CCS.[Na+]` [MESNA], the Fa was 77%.
